Patent US20100197610A1, “FRUCTOSE 1, 6 BISPHOSPHATE - A NOVEL ANTICONVULSANT DRUG” (Baylor College of Medicine, priority 2007, published 2010)

Tests used:
[1] = test system: pilocarpine-induced seizures; experiment: Pilocarpine model of acute seizures; assay type: in vivo, Sprague Dawley rats
Protocol: (§1) All animal experiments were carried out in accordance with the National Institutes of Health guide for the care and use of laboratory animals (NIH publication 8023, revised 1996) and with the approval of the local Animal Use Committee. Unless indicated, all chemicals were obtained from Sigma Chemical Co (St. Louis Mo.). Male, Sprague Dawley rats weighing 50-74 g (young) or 147-309 g (adult) were used in this study. Acute seizures were induced by kainic acid (KA; Ocean Produce Int., Canada), pilocarpine or pentylenetetrazole (PTZ) as previously described (Lian et al 2006). These models were chosen because they initiate seizures by different mechanisms and the seizures have a relatively gradual onset compared to seizures initiated by stimulation. There was no difference in the body weight of the animals receiving the different convulsants. For pilocarpine, kainic acid and PTZ, the mean weights were 219±5 g (range 163-275 g), 215±7 g (range 183-258 g), and 216±13 g (range 147-309 g), respectively. The animals in the drug treatment groups were not different in weight from the animals in the control groups.
(§2) After administration of KA (10 mg/kg, ip), pilocarpine (scopolamine methyl bromide 1 mg/kg, s.c followed 15 min later by 300 mg/kg, ip pilocarpine) or PTZ (50 mg/kg, ip) (Lian et al., 2006), animals were continuously monitored for seizure activity for at least 5 h after KA or pilocarpine and for 30 min after PTZ. Behavioral seizures were scored by an investigator blinded to the treatment. Latency to the first wet dog shake after KA, latency to the first forelimb clonus (after pilocarpine, kainic acid or PTZ) and the score and duration of seizures were measured. When at least 1 hour had passed without any head bobbing (for pilocarpine) or any wet dog shakes (for KA), seizures were considered over. Status epilepticus lasting longer than 4 hours (for KA) or 5 hours (for pilocarpine) were assigned 4 and 5 hours for seizure duration. For animals receiving PTZ, the seizure duration was defined as the period of tonic-clonic seizures. EEG recording in the hippocampus was conducted as previously described (Lian et al., 2004). After anesthesia, a recording electrode was placed in a burr hole centered at 3.0 mm posterior to bregma, 1.8 mm lateral to the midline and then lowered 3.0 mm. A ground screw and wire was placed over the frontal region in another burr hole. This assembly was fixed to the skull with dental cement.
(§3) Each animal was assigned the score of the most severe seizure observed. The behavioral seizures induced by KA or pilocarpine were scored according to an adjusted version of the scale of Racine (Bough et al., 2002): stage 1, wet dog shakes after KA or trembling after pilocarpine; stage 2, head bobbing and stereotypes; stage 3, unilateral forelimb clonus; stage 4, bilateral forelimb clonus; stage 5, rearing and falling; stage 6, jumping and/or running followed by falling. Death within 24 h was assigned stage 7.
(§4) Adult rats received either D-F1,6BP, sodium valproate (VPA, 0.3 g/kg), 2-DG (0.25, 0.5 g/kg) or normal saline (vehicle) intraperitoneally followed 1 h later by one of the convulsants. The dose for VPA was based on experimental evidence that doses from 0.1 to 0.4 g/kg (ip) are effective in animal models (Bough and Eagles, 2001; Manent et al., 2007). Three doses of F1,6BP (0.25, 0.5 and 1 g/kg) were tested with this dosing schedule. Two additional groups were administered F1,6BP (0.5 or 1 g/kg, n=5) after pilocarpine. In this experiment, the F1,6BP was given intraperitoneally at the first behavioral seizure, which was chewing movements of the jaw. Two additional sets of animals were fed the classic ketogenic diet (No. F3666; Bio-Serv, Frenchtown, N.J.). One set of animals was given the diet beginning on postnatal day 22-26 (KD-Yng) and maintained on this diet for 4 weeks. Thus the seizures were tested in this group when the animals had reached approximately the same age (50-54 days) as the majority of the animals tested. […]

[2] = test system: kainic acid-induced seizures; experiment: Kainic acid model of acute seizures; assay type: in vivo, Sprague Dawley rats; details: for animals with mild seizures (wet dog shakes or head bobbing) / animals with severe seizures: 8 animals
Protocol: as §1, §2, §3, §4

[3] = cited from earlier work
[4] = 1 g/kg given at first sign of seizure activity after pilocarpine

Question: With `O=C(COP(=O)(O)O)[C@@H](O)[C@H](O)[C@H](O)COP(=O)(O)O` [F1,6BP, Fructose-1,6-bisphosphate] as the molecule, how does the “latency to forelimb clonus” value [1, 4] read?
Answer: increase

Question: And the seizure duration [1, 4]?
Answer: decrease

Question: And the “progression of the seizures” value ([1]; 1 g/kg given at first sign of seizure activity after pilocarpine, n=5)?
Answer: significantly slowed

Question: And the “behavioral or electrographic seizures (hippocampal EEG)” value ([1]; 4 rats pretreated with 1 g/kg)?
Answer: no behavioral or electrographic seizures

Question: What about the “effect on the seizure parameters” value ([1]; F1,6BP 0.25 g/kg ip 1 h before pilocarpine, n=5) of the same molecule?
Answer: no effect

Question: What about the “animals with a seizure score ≧3” value ([1]; F1,6BP 0.5 g/kg ip 1 h before pilocarpine) of the same molecule?
Answer: 3 out of 10

Question: And the “animals with a seizure score ≧3” value ([1]; F1,6BP 1 g/kg ip 1 h before pilocarpine)?
Answer: 2 out of 10

Question: What about the seizure duration ([1]; pretreated with 0.5 or 1 g/kg) of the same molecule?
Answer: significantly decreased

Question: And the seizure score ([1]; pretreated with 0.5 or 1 g/kg)?
Answer: significantly decreased

Question: And the “latency to the seizures” value ([1]; the 5 animals with score ≧3 after 0.5 or 1 g/kg pretreatment)?
Answer: significantly increased

Question: What about the “effect on the seizures” value ([2]; F1,6BP 0.25 g/kg, n=6) of the same molecule?
Answer: no effect

Question: What about the “animals with no seizures” value ([2]; F1,6BP 0.5 g/kg) of the same molecule?
Answer: Two out of 8

Question: And the mean seizure score ([2]; F1,6BP 0.5 g/kg)?
Answer: 2.5±0.5

Question: And the “animals with mild seizures (wet dog shakes or head bobbing)” value ([2]; F1,6BP 0.5 g/kg)?
Answer: three

Question: And the “animals with severe seizures” value ([2]; F1,6BP 0.5 g/kg)?
Answer: 3

Question: What about the onset of seizures ([2]; F1,6BP 0.5 or 1 g/kg) of the same molecule?
Answer: significantly delayed

Question: What about the seizure duration ([2]; F1,6BP 0.5 or 1 g/kg) of the same molecule?
Answer: decreased

Question: What about the seizure score ([2]; F1,6BP 0.5 or 1 g/kg) of the same molecule?
Answer: decreased

Question: What about the “animals with no seizures” value ([2]; F1,6BP 1 g/kg) of the same molecule?
Answer: Three out of 8

Question: And the “average seizure score for the entire group” value ([2]; F1,6BP 1 g/kg)?
Answer: 1.4±0.5

Question: What about the “mean latency to first forelimb clonus” value ([2]; F1,6BP 1 g/kg) of the same molecule?
Answer: 105 ± 7 min

Question: And the “animals with mild seizures (wet dog shakes or head bobbing)” value ([2]; F1,6BP 1 g/kg)?
Answer: 3

Question: What about the “animals with severe seizures” value ([2]; F1,6BP 1 g/kg) of the same molecule?
Answer: 2

Question: And the toxicity in humans ([3]; administered to humans)?
Answer: no reported toxicity

Question: And the “safety in healthy volunteers” value ([3]; doses from 5 to 15 g)?
Answer: safe
